Data on one compound can be found in patent CN112843052A, “新型表观遗传因子抑制剂2800z在制备抗肝癌药物增敏剂中的应用” (Hunan Normal University, priority 2021, dated 2021).

By IC50 is commonly meant the concentration at which inhibition is half-maximal.

Data set [1] has as its system HEPG2 cells [HEPG2细胞]. In words: In vitro cytotoxicity experiment (体外细胞毒性实验). The format is cell-based. To be noted: sorafenib 4 uM, 2800Z 60 uM, each alone or combined, 12, 24, 36 h.
Data set [2] has as its system HEPG2 cells [HEPG2细胞]. The conditions noted are these: known IC50 value of the chemotherapeutic drug; cell line not printed in the clause; cited from earlier work.
Data set [3] concerns mouse liver cancer (subcutaneous HEPG2 cells in nude mice) [小鼠肝癌]. The data set is described as follows: In vivo anti-liver-cancer experiment (体内抗肝癌实验), subcutaneous HEPG2 tumours in nude mice. The conditions noted are these: 14 days, i.p. three times per week for two weeks.
[4] abbreviates: sorafenib 1 mg/kg, 2800Z 4 mg/kg, each alone or combined.

For `CNC(=O)c1cc(Oc2ccc(NC(=O)Nc3ccc(Cl)c(C(F)(F)F)c3)cc2)ccn1` [索拉菲尼, Sorafenib], in the data set on HEPG2 cells [HEPG2细胞] [1], the “cytotoxicity (in words)” value is “细胞毒性较差”. Besides, in the data set with HEPG2 cells [HEPG2细胞] [2], the IC50 is 10 µM. For the same compound, the “liver cancer volume compared with the untreated group (in words)” value in data set [3] (sorafenib 1 mg/kg or 2800Z 4 mg/kg) is listed as “与未给药组的结果相近”. Besides, in data set [3] (setting [4]), the “inhibition of mouse liver cancer (in words)” value was “抑制作用较弱” and the “liver cancer (tumour) volume” value is reported as approximately 1000 mm3.
